Experimental data from publication PMC12446476 (Nature Communications, 2025).
Where “and” joins values, the source holds several entries; their conditions need not be identical. Equal values may be shown once.

Tests used:
N. gonorrhoeae = N. gonorrhoeae murine vaginal infection model, efficacy; format: in vivo, mouse; conditions: for Mean Diff. 0h vs. treatment, log10 CFU: WHO X-07
Description: The N. gonorrhoeae female mouse vaginal model[45] was performed in accordance with the Guide for Care and Use of Laboratory Animals[75]. Animal rooms were maintained at a temperature range of 20–24 °C and humidity between 30% and 70%, with 12 h light/dark cycles. Ovariectomized BALB/c female mice (5–6 weeks, BioLASCO Taiwan Co., Ltd.) were treated with estradiol (0.23 mg/mouse) two days before infection and on the day of infection. Ovariectomized mice were used to avoid staging mice before treating them with estradiol. Beginning two days prior to infection and maintained until the end of the study, animals were treated twice daily with streptomycin (1.2 mg/mouse) and vancomycin (0.6 mg/mouse) each via intraperitoneal (IP) injection and received trimethoprim sulfate in the drinking water (0.4 mg/mL) to control vaginal microflora. Animals were anesthetised with pentobarbital (80 mg/kg), the vagina was rinsed with 50 mM HEPES (pH 7.4), and then inoculated with N. gonorrhoeae in pre-warmed PBS (0.02 mL/mouse containing ~1 × 10^5 CFU).
Control groups received either a single IP injection of ceftriaxone or 5% dextrose (vehicle) twice daily. Animals were sacrificed via CO2 asphyxiation at either 2 h (baseline), 26 and/or 50 h post-infection. Vaginal lavage was performed twice with 200 µL GC broth containing 0.05% saponin to recover bacteria. Bacterial burden in the lavage fluids was determined by performing 10-fold serial dilutions and plating on chocolate agar plates. Four strains were assessed using the model; ATCC 700825 is naturally streptomycin-resistant, whereas AR Bank0179-15, AR Bank0181-17 and WHO X-07 are derivatives of AR Bank0179, AR Bank0181 and WHO X, respectively, that were engineered for streptomycin resistance for use in the model.

S. aureus ATCC 29213 = assay: S. aureus neutropenic murine thigh infection model; format: in vivo, mouse; conditions: for reduction in thighs: dosed as Debio 1453 P; for Mean Diff. 0h vs. treatment, log10 CFU: S. aureus ATCC 29213, daily dose
Description: The S. aureus neutropenic murine thigh infection model was performed in accordance with the Guide for Care and Use of Laboratory Animals[75]. Animal rooms were maintained at a temperature range of 20–24 °C and humidity between 30% and 70%, with 12 h light/dark cycles. Female ICR mice (BioLASCO Taiwan Co., Ltd.) were rendered neutropenic via IP injection of cyclophosphamide four days before infection (150 mg/kg) and again one day before infection (100 mg/kg). Animals were anaesthetised with isoflurane (3–5%), then inoculated intramuscularly with S. aureus ATCC 29213 (~1 × 10^5 CFU/mouse). […] Animals were sacrificed via CO2 asphyxiation at either 2 h (baseline), 26 and/or 50 h post-infection. Thigh tissues were harvested and homogenised in 3 mL sterile PBS (pH 7.4). Bacterial burdens were determined by performing 10-fold serial dilutions and plating on nutrient agar plates.

[1] = tested on: intracellular N. gonorrhoeae; assay: Intracellular killing in HeLa229 cells; format: cell-based, Neisseria gonorrhoeae; conditions: for reduction of intracellular bacteria: within 24 h; for Colony forming units (CFU) of N. gonorrhoeae internalised in HeLa229 cells, colony count: dilution 0, replicates 1-3, counts 1-2
Description: Intracellular killing was assessed within HeLa229 cells (European Collection of Authenticated Cell Cultures, London, UK) that were seeded at ~3 × 10^5 cells/mL and grown to 70–80% confluence in RPMI-glutamine media supplemented with 10% (v/v) heat-inactivated fetal bovine serum (FBS, Gibco, MA, USA). Cells were incubated at 37 °C with 5% CO2 for 24 h, then washed with serum-free RPMI-1640 prior to infection. N. gonorrhoeae was scraped from agar plates and resuspended in Dulbecco’s Phosphate Buffered Saline (DPBS, Sigma-Aldrich), pelleted, then resuspended in RPMI with 2% FBS. Bacterial suspensions were used to infect HeLa229 cells at a multiplicity of infection of 100:1. Plates were briefly centrifuged (500 × g for 5 min), then incubated for one hour. This incubation and all subsequent incubations were performed at 37 °C with 5% CO2. Non-adherent cells were removed by washing with serum-free RPMI, and the remaining extracellular bacteria were killed via resuspension in RPMI-glutamine supplemented with 2% FBS and 200 μg/mL gentamycin and incubation for one hour. […] Azithromycin-treated samples were included for control/comparison. […] Samples were diluted and plated onto chocolate II agar for viable bacteria quantification. Intracellular killing assays were performed at Microbiologics, Kalamazoo, MI, USA, using a method adapted from previous studies[68],[69].

Cc1c(CN(C)C(=O)/C=C/c2cnc3c(c2)N[C@H](C)[C@H](O)C(=O)N3)oc2ccccc12 [Debio 1453]
Mean Diff. 0h vs. treatment, log10 CFU (N. gonorrhoeae; 24h): 2.532 | Mean Diff. 0h vs. treatment, log10 CFU (N. gonorrhoeae; 48h): 3.114 | reduction compared to the start of treatment (0 h) (N. gonorrhoeae; each of four strains, dosed as Debio 1453 P, limit of detection by 48 h for at least one dose level): ~ 3 log10CFU/mL | reduction in thighs (S. aureus ATCC 29213; 24 h): > 1 log10CFU/mL | reduction in thighs (S. aureus ATCC 29213; 48 h): > 2 log10CFU | Mean Diff. 0h vs. treatment, log10 CFU (S. aureus ATCC 29213; 20 µg/mL Debio 1453, 24h): -1.552 | Mean Diff. 0h vs. treatment, log10 CFU (S. aureus ATCC 29213; 20 µg/mL Debio 1453, 48h): -2.396 | Mean Diff. 0h vs. treatment, log10 CFU (S. aureus ATCC 29213; 40 µg/mL Debio 1453, 24h): -0.054 | Mean Diff. 0h vs. treatment, log10 CFU (S. aureus ATCC 29213; 40 µg/mL Debio 1453, 48h): -1.464 | Mean Diff. 0h vs. treatment, log10 CFU (S. aureus ATCC 29213; 60 µg/mL Debio 1453, 24h): 1.22 | Mean Diff. 0h vs. treatment, log10 CFU (S. aureus ATCC 29213; 60 µg/mL Debio 1453, 48h): 1.476 | Mean Diff. 0h vs. treatment, log10 CFU (S. aureus ATCC 29213; 80 µg/mL Debio 1453, 24h): 1.132 | Mean Diff. 0h vs. treatment, log10 CFU (S. aureus ATCC 29213; 80 µg/mL Debio 1453, 48h): 2.658 | Mean Diff. 0h vs. treatment, log10 CFU (S. aureus ATCC 29213; 160 µg/mL Debio 1453, 24h): 1.558 | Mean Diff. 0h vs. treatment, log10 CFU (S. aureus ATCC 29213; 160 µg/mL Debio 1453, 48h): 2.682 | reduction of intracellular bacteria ([1]; ATCC 49226 in HeLa229 cells): ≥ 3.1 log10CFU/mL | reduction of intracellular bacteria ([1]; WHO X in HeLa229 cells): ≥ 2.8 log10CFU/mL | Colony forming units (CFU) of N. gonorrhoeae internalised in HeLa229 cells, colony count ([1]; isolate ATCC 49226, 3 hr, 2X MIC): 39 CFU and 23 CFU and 37 CFU and 34 CFU and 36 CFU and 40 CFU | Colony forming units (CFU) of N. gonorrhoeae internalised in HeLa229 cells, colony count ([1]; isolate ATCC 49226, 3 hr, 4X MIC): 53 CFU and 63 CFU and 32 CFU and 35 CFU and 51 CFU and 39 CFU | Colony forming units (CFU) of N. gonorrhoeae internalised in HeLa229 cells, colony count ([1]; isolate ATCC 49226, 3 hr, 8X MIC): 26 CFU and 40 CFU and 33 CFU (2×) and 29 CFU and 38 CFU | Colony forming units (CFU) of N. gonorrhoeae internalised in HeLa229 cells, colony count ([1]; isolate ATCC 49226, 6 hr, 2X MIC): 5 CFU | Colony forming units (CFU) of N. gonorrhoeae internalised in HeLa229 cells, colony count ([1]; isolate ATCC 49226, 6 hr, 4X MIC): 5 CFU (2×) and 6 CFU | Colony forming units (CFU) of N. gonorrhoeae internalised in HeLa229 cells, colony count ([1]; isolate ATCC 49226, 6 hr, 8X MIC): 2 CFU and 6 CFU (2×) | Colony forming units (CFU) of N. gonorrhoeae internalised in HeLa229 cells, colony count ([1]; isolate ATCC 49226, 10 hr, 2X MIC): 0 CFU | Colony forming units (CFU) of N. gonorrhoeae internalised in HeLa229 cells, colony count ([1]; isolate ATCC 49226, 10 hr, 4X MIC): 1 CFU (3×) and 0 CFU (3×) | Colony forming units (CFU) of N. gonorrhoeae internalised in HeLa229 cells, colony count ([1]; isolate ATCC 49226, 10 hr, 8X MIC): 0 CFU | Colony forming units (CFU) of N. gonorrhoeae internalised in HeLa229 cells, colony count ([1]; isolate ATCC 49226, 24 hr, 2X MIC): 0 CFU | Colony forming units (CFU) of N. gonorrhoeae internalised in HeLa229 cells, colony count ([1]; isolate ATCC 49226, 24 hr, 4X MIC): 0 CFU | Colony forming units (CFU) of N. gonorrhoeae internalised in HeLa229 cells, colony count ([1]; isolate ATCC 49226, 24 hr, 8X MIC): 0 CFU | Colony forming units (CFU) of N. gonorrhoeae internalised in HeLa229 cells, colony count ([1]; isolate NCTC 13820, 3 hr, 2X MIC): 27 CFU and 24 CFU (2×) | Colony forming units (CFU) of N. gonorrhoeae internalised in HeLa229 cells, colony count ([1]; isolate NCTC 13820, 3 hr, 4X MIC): 25 CFU and 30 CFU and 34 CFU | Colony forming units (CFU) of N. gonorrhoeae internalised in HeLa229 cells, colony count ([1]; isolate NCTC 13820, 3 hr, 8X MIC): 29 CFU (2×) and 25 CFU and 31 CFU | Colony forming units (CFU) of N. gonorrhoeae internalised in HeLa229 cells, colony count ([1]; isolate NCTC 13820, 6 hr, 2X MIC): 6 CFU and 12 CFU | Colony forming units (CFU) of N. gonorrhoeae internalised in HeLa229 cells, colony count ([1]; isolate NCTC 13820, 6 hr, 8X MIC): 5 CFU (2×) and 0 CFU and 11 CFU | Colony forming units (CFU) of N. gonorrhoeae internalised in HeLa229 cells, colony count ([1]; isolate NCTC 13820, 10 hr, 2X MIC): 1 CFU (2×) and 2 CFU and 0 CFU | Colony forming units (CFU) of N. gonorrhoeae internalised in HeLa229 cells, colony count ([1]; isolate NCTC 13820, 10 hr, 4X MIC): 1 CFU (2×) and 2 CFU (3×) and 0 CFU | Colony forming units (CFU) of N. gonorrhoeae internalised in HeLa229 cells, colony count ([1]; isolate NCTC 13820, 10 hr, 8X MIC): 2 CFU and 1 CFU (2×) and 0 CFU (2×) | Colony forming units (CFU) of N. gonorrhoeae internalised in HeLa229 cells, colony count ([1]; isolate NCTC 13820, 24 hr, 2X MIC): 0 CFU | Colony forming units (CFU) of N. gonorrhoeae internalised in HeLa229 cells, colony count ([1]; isolate NCTC 13820, 24 hr, 4X MIC): 0 CFU
